Results: the NIST ThermoML archive (doi:10.1016/j.jct.2012.08.021)

Assay: xn = mol fraction of the nth substance listed
Conditions: 101 kPa, Liquid, Vibrating tube method

NCCO [2-aminoethan-1-ol] + C[S+](C)[O-]
Conditions	mass density [kg/m3]
293.15 K, x1 = 0.1002	1092.35
293.15 K, x1 = 0.2	1084.23
293.15 K, x1 = 0.2999	1076.52
293.15 K, x1 = 0.4002	1068.58
293.15 K, x1 = 0.5002	1060.65
293.15 K, x1 = 0.5999	1052.61
293.15 K, x1 = 0.7002	1044.32
293.15 K, x1 = 0.8001	1035.24
293.15 K, x1 = 0.8998	1026.1
293.16 K, x1 = 1	1016.34
303.14 K, x1 = 0.2999	1066.93
303.14 K, x1 = 1	1008.4
303.15 K, x1 = 0.1002	1082.48
303.15 K, x1 = 0.4002	1059.15
303.15 K, x1 = 0.5002	1051.41
303.15 K, x1 = 0.5999	1043.58
303.15 K, x1 = 0.7002	1035.51
303.15 K, x1 = 0.8001	1026.69
303.15 K, x1 = 0.8998	1017.83
303.16 K, x1 = 0.2	1074.46
313.14 K, x1 = 0.1002	1072.61
313.14 K, x1 = 0.2999	1057.33
313.14 K, x1 = 1	1000.41
313.15 K, x1 = 0.2	1064.73
313.15 K, x1 = 0.4002	1049.71
313.15 K, x1 = 0.5002	1042.15
313.15 K, x1 = 0.5999	1034.52
313.15 K, x1 = 0.7002	1026.7
313.15 K, x1 = 0.8001	1018.12
313.15 K, x1 = 0.8998	1009.56
323.14 K, x1 = 0.1002	1062.74
323.15 K, x1 = 0.2999	1047.72
323.15 K, x1 = 0.4002	1040.26
323.15 K, x1 = 0.5002	1032.85
323.15 K, x1 = 0.5999	1025.42
323.15 K, x1 = 0.7002	1017.83
323.15 K, x1 = 0.8001	1009.5
323.15 K, x1 = 0.8998	1001.23
323.15 K, x1 = 1	992.384
323.16 K, x1 = 0.2	1054.96
333.14 K, x1 = 0.2999	1038.11
333.14 K, x1 = 1	984.302
333.15 K, x1 = 0.1002	1052.86
333.15 K, x1 = 0.4002	1030.78
333.15 K, x1 = 0.5002	1023.56
333.15 K, x1 = 0.7002	1008.93
333.15 K, x1 = 0.8001	1000.84
333.15 K, x1 = 0.8998	992.847
333.16 K, x1 = 0.2	1045.22
333.16 K, x1 = 0.5999	1016.3
343.14 K, x1 = 1	976.141
343.15 K, x1 = 0.1002	1042.97
343.15 K, x1 = 0.2	1035.46
343.15 K, x1 = 0.2999	1028.47
343.15 K, x1 = 0.4002	1021.28
343.15 K, x1 = 0.5002	1014.22
343.15 K, x1 = 0.5999	1007.15
343.15 K, x1 = 0.7002	999.999
343.15 K, x1 = 0.8001	992.114
343.15 K, x1 = 0.8998	984.393
353.14 K, x1 = 0.1002	1033.05
353.14 K, x1 = 0.2999	1018.81
353.14 K, x1 = 0.4002	1011.75
353.14 K, x1 = 0.5002	1004.84
353.14 K, x1 = 0.7002	990.992
353.14 K, x1 = 0.8001	983.32
353.14 K, x1 = 0.8998	975.863
353.14 K, x1 = 1	967.893
353.15 K, x1 = 0.2	1025.66
353.15 K, x1 = 0.5999	997.944
363.14 K, x1 = 0.1002	1023.1
363.14 K, x1 = 0.2	1015.84
363.14 K, x1 = 0.5002	995.408
363.14 K, x1 = 0.5999	988.672
363.14 K, x1 = 0.7002	981.91
363.14 K, x1 = 0.8001	974.446
363.14 K, x1 = 0.8998	967.234
363.15 K, x1 = 0.2999	1009.1
363.15 K, x1 = 0.4002	1002.17
363.15 K, x1 = 1	959.536

CN(CCO)CCO [N-methyldiethanolamine] + C[S+](C)[O-]
Conditions	mass density [kg/m3]
293.14 K, x1 = 0.5998	1053.8
293.15 K, x1 = 0.1002	1089.57
293.15 K, x1 = 0.2	1079.89
293.15 K, x1 = 0.3001	1071.58
293.15 K, x1 = 0.4001	1064.66
293.15 K, x1 = 0.5002	1058.74
293.15 K, x1 = 0.7002	1049.58
293.15 K, x1 = 0.7998	1046.1
293.15 K, x1 = 0.8998	1043.37
293.15 K, x1 = 1	1040.6
303.14 K, x1 = 0.4001	1056.1
303.14 K, x1 = 0.5998	1045.65
303.15 K, x1 = 0.1002	1080.03
303.15 K, x1 = 0.2	1070.75
303.15 K, x1 = 0.3001	1062.76
303.15 K, x1 = 0.5002	1050.39
303.15 K, x1 = 0.7002	1041.61
303.15 K, x1 = 0.7998	1038.28
303.15 K, x1 = 0.8998	1035.67
303.15 K, x1 = 1	1033.02
313.14 K, x1 = 0.4001	1047.54
313.14 K, x1 = 0.5998	1037.49
313.15 K, x1 = 0.1002	1070.49
313.15 K, x1 = 0.2	1061.61
313.15 K, x1 = 0.3001	1053.94
313.15 K, x1 = 0.5002	1042.06
313.15 K, x1 = 0.7002	1033.61
313.15 K, x1 = 0.7998	1030.42
313.15 K, x1 = 0.8998	1027.95
313.15 K, x1 = 1	1025.4
323.14 K, x1 = 0.4001	1038.99
323.14 K, x1 = 0.5998	1029.33
323.15 K, x1 = 0.1002	1060.95
323.15 K, x1 = 0.2	1052.47
323.15 K, x1 = 0.3001	1045.11
323.15 K, x1 = 0.5002	1033.71
323.15 K, x1 = 0.7002	1025.6
323.15 K, x1 = 0.7998	1022.53
323.15 K, x1 = 0.8998	1020.18
323.15 K, x1 = 1	1017.74
333.14 K, x1 = 0.4001	1030.43
333.14 K, x1 = 0.5998	1021.15
333.15 K, x1 = 0.1002	1051.41
333.15 K, x1 = 0.2	1043.33
333.15 K, x1 = 0.3001	1036.29
333.15 K, x1 = 0.5002	1025.37
333.15 K, x1 = 0.7002	1017.56
333.15 K, x1 = 0.7998	1014.63
333.15 K, x1 = 0.8998	1012.37
333.15 K, x1 = 1	1010.03
343.14 K, x1 = 0.4001	1021.86
343.14 K, x1 = 0.5002	1017.01
343.14 K, x1 = 0.5998	1012.95
343.15 K, x1 = 0.1002	1041.86
343.15 K, x1 = 0.2	1034.18
343.15 K, x1 = 0.3001	1027.48
343.15 K, x1 = 0.7002	1009.51
343.15 K, x1 = 0.7998	1006.67
343.15 K, x1 = 0.8998	1004.51
343.15 K, x1 = 1	1002.25
353.14 K, x1 = 0.1002	1032.29
353.14 K, x1 = 0.4001	1013.27
353.14 K, x1 = 0.5002	1008.63
353.14 K, x1 = 0.5998	1004.72
353.14 K, x1 = 0.8998	996.587
353.14 K, x1 = 1	994.404
353.15 K, x1 = 0.2	1025.01
353.15 K, x1 = 0.7002	1001.4
353.16 K, x1 = 0.3001	1018.62
353.16 K, x1 = 0.7998	998.661
363.14 K, x1 = 0.1002	1022.7
363.14 K, x1 = 0.2	1015.82
363.14 K, x1 = 0.3001	1009.77
363.14 K, x1 = 0.5002	1000.22
363.14 K, x1 = 0.7002	993.263
363.14 K, x1 = 0.7998	990.621
363.14 K, x1 = 0.8998	988.594
363.15 K, x1 = 0.4001	1004.65
363.15 K, x1 = 0.5998	996.455
363.15 K, x1 = 1	986.471

OCCNCCO [diethanolamine] + C[S+](C)[O-]
Conditions	mass density [kg/m3]
293.14 K, x1 = 0.9002	1097.48
293.15 K, x1 = 0.1002	1098.86
293.15 K, x1 = 0.1999	1097.33
293.15 K, x1 = 0.2998	1096.58
293.15 K, x1 = 0.4001	1096.23
293.15 K, x1 = 0.5001	1096.24
293.15 K, x1 = 0.6	1096.29
293.15 K, x1 = 0.7002	1096.88
293.15 K, x1 = 0.8001	1097.24
293.15 K, x1 = 1	1097.61
303.14 K, x1 = 0.4001	1087.87
303.14 K, x1 = 0.9002	1090.69
303.15 K, x1 = 0.1002	1089.38
303.15 K, x1 = 0.1999	1088.26
303.15 K, x1 = 0.2998	1087.88
303.15 K, x1 = 0.5001	1088.23
303.15 K, x1 = 0.6	1088.59
303.15 K, x1 = 0.7002	1089.43
303.15 K, x1 = 0.8001	1090.11
303.15 K, x1 = 1	1091.17
313.14 K, x1 = 0.4001	1079.49
313.15 K, x1 = 0.1002	1079.89
313.15 K, x1 = 0.1999	1079.19
313.15 K, x1 = 0.2998	1079.18
313.15 K, x1 = 0.5001	1080.19
313.15 K, x1 = 0.6	1080.87
313.15 K, x1 = 0.7002	1081.97
313.15 K, x1 = 0.8001	1082.9
313.15 K, x1 = 0.9002	1083.77
313.15 K, x1 = 1	1084.6
323.14 K, x1 = 0.4001	1071.1
323.15 K, x1 = 0.1002	1070.39
323.15 K, x1 = 0.1999	1070.11
323.15 K, x1 = 0.2998	1070.46
323.15 K, x1 = 0.5001	1072.12
323.15 K, x1 = 0.6	1073.1
323.15 K, x1 = 0.7002	1074.48
323.15 K, x1 = 0.9002	1076.8
323.15 K, x1 = 1	1077.88
323.16 K, x1 = 0.8001	1075.68
333.14 K, x1 = 1	1071.11
333.15 K, x1 = 0.1002	1060.89
333.15 K, x1 = 0.1999	1061.01
333.15 K, x1 = 0.2998	1061.72
333.15 K, x1 = 0.4001	1062.67
333.15 K, x1 = 0.5001	1064.01
333.15 K, x1 = 0.6	1065.3
333.15 K, x1 = 0.7002	1066.94
333.15 K, x1 = 0.8001	1068.41
333.15 K, x1 = 0.9002	1069.78
343.14 K, x1 = 0.4001	1054.22
343.14 K, x1 = 0.9002	1062.69
343.14 K, x1 = 1	1064.25
343.15 K, x1 = 0.1002	1051.36
343.15 K, x1 = 0.1999	1051.9
343.15 K, x1 = 0.2998	1052.96
343.15 K, x1 = 0.5001	1055.86
343.15 K, x1 = 0.6	1057.43
343.15 K, x1 = 0.7002	1059.34
343.15 K, x1 = 0.8001	1061.08
353.14 K, x1 = 0.1999	1042.77
353.14 K, x1 = 0.5001	1047.65
353.14 K, x1 = 0.7002	1051.66
353.14 K, x1 = 0.9002	1055.5
353.14 K, x1 = 1	1057.31
353.15 K, x1 = 0.1002	1041.8
353.15 K, x1 = 0.2998	1044.16
353.15 K, x1 = 0.4001	1045.72
353.15 K, x1 = 0.6	1049.5
353.15 K, x1 = 0.8001	1053.64
363.14 K, x1 = 0.1002	1032.21
363.14 K, x1 = 0.1999	1033.59
363.14 K, x1 = 0.2998	1035.35
363.14 K, x1 = 0.6	1041.5
363.14 K, x1 = 0.7002	1043.89
363.14 K, x1 = 0.8001	1046.12
363.14 K, x1 = 0.9002	1048.21
363.15 K, x1 = 0.4001	1037.18
363.15 K, x1 = 0.5001	1039.38
363.15 K, x1 = 1	1050.24
